Data reported in PMC6156125, “Chemistry and Hypoglycemic Activity of GPR119 Agonist ZB-16” (Frontiers in Endocrinology, 2018).

What was measured:
human GPR119 (hGPR119) = target: T1, human GPR119 (hGPR119) (Homo sapiens, UniProt Q8TDV5); test: Specific (agonistic) activity in vitro, cAMP increase (Lance Ultra cAMP kit) in CHO-K1 cells expressing hGPR119; format: cell-based; settings: for EC50: CHO-K1 hGPR119, cAMP
T1 construct: expressed in transfected cells; host or cells: CHO-K1 (Chinese hamster ovary)
T1 sequence (Q8TDV5 1-335): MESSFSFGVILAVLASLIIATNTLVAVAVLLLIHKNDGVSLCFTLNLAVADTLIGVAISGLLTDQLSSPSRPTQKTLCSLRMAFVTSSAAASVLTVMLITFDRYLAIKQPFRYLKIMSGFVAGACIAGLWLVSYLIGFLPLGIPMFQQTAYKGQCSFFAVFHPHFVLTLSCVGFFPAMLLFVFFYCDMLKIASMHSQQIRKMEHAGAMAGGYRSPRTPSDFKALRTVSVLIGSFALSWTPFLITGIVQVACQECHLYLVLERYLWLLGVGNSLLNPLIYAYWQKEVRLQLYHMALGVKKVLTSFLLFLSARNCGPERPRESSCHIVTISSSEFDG
Description: Specific activity was evaluated using an immortalized Chinese hamster ovary cell line CHO-K1 steadily expressed human GPR119 (hGPR119). The cells (10^7 ml^−1) were cultured in Dulbecco's modified Eagle medium (DMEM) modified with 10% fetal bovine serum (FBS), revolved continuously at 50 rpm at 37°C in 8% CO2 for 3–4 days. Lance Ultra cAMP kit (Perkin Elmer, Waltham, MA, USA) was chosen as the experimental platform ([13]). The experiments were performed in accordance to the manufacturer's instructions. The agonistic activity of the test compounds was estimated by the increase in intracellular cAMP concentration, assuming the hGPR119 activation is followed by the activation of cellular adenylate cyclase, which increases intracellular cAMP levels ([4], [14]). Known agonists of hGPR119 receptors were used as positive controls to determine the maximal possible effect (MPE). The activity of test compounds was expressed in terms of median effective concentration (EC50).

[1] = Biotransformation in vitro, microsomal stability (rat); format: in vitro ADME
Description: The metabolism of the compounds was studied in commercially available microsomal fractions derived from human and rat hepatocytes. Test compounds (0.5 μM) were incubated with microsomal fractions in the presence of NADPH during 30 min in a shaker at 37°C. Reactions were stopped at 0, 5, 10, 15, and 30 min by adding acetonitrile. After proteins precipitation, the remaining amount of the test compound in the supernatant was detected with high performance liquid chromatography tandem-mass spectrometry (HPLC-MS/MS) method using Agilent 1260 liquid chromatograph (Agilent Technologies, Santa Clara, CA, USA) and a QTRAP6500 triple quadrupole mass spectrometer with a TurboIonSpray electro-spraying module (ABSciex, Foster City, CA, USA) ([15]). Incubation was performed twice, with at least 2 measurements for each replicate (n ≥ 3). The half-life (T1/2), the clearance in vitro (CLint) and the remaining amount of substance (% of initial quantity) were calculated.

hERG potassium channels = target: T2, hERG potassium channels (Homo sapiens, UniProt Q12809); test: Cardiac toxicity, Predictor hERG fluorescence polarization binding
T2 construct: purchased Invitrogen Corporation, Carlsbad, CA, USA
T2 sequence (Q12809 whole entry): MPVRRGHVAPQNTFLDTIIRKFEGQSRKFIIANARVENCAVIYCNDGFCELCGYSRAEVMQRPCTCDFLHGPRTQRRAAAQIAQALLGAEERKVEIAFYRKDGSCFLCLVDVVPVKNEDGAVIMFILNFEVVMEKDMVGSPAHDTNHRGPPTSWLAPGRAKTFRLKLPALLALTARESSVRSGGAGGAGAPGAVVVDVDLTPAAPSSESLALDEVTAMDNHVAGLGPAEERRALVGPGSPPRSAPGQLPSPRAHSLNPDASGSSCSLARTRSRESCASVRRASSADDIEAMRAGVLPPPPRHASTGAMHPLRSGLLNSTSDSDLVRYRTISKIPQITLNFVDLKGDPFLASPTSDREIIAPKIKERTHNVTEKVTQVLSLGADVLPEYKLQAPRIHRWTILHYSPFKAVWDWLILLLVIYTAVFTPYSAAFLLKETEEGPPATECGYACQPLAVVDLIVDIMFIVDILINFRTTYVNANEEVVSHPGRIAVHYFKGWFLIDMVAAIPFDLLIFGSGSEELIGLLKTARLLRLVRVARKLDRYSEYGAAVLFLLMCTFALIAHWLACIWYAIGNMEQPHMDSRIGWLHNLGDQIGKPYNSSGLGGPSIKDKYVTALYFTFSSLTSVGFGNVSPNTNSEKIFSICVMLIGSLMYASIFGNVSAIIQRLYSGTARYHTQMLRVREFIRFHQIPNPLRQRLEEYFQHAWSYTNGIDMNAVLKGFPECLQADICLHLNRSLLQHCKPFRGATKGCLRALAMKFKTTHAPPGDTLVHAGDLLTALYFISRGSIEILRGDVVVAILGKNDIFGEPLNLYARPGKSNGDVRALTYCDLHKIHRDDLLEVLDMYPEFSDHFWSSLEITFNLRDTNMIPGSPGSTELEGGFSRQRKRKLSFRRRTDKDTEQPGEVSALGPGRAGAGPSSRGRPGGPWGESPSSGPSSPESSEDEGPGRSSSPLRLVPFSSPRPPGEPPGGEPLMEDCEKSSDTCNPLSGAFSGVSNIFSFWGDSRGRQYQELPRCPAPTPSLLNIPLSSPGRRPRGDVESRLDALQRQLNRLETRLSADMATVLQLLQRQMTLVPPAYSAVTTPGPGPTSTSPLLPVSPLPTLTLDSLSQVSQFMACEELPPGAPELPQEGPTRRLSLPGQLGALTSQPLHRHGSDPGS
Description: Cardiac toxicity was evaluated by estimating the influence of each substance on hERG potassium channels using the in vitro test system Invitrogen® PredictorTM hERG (Invitrogen Corporation, Carlsbad, CA, USA), containing Predictor hERG membrane preparations, fluorescent tracer stock solution and an assay buffer solution. Experimental procedures were conducted in accordance with the PredictorTM hERG test system's manufacturer instructions. Assays were performed in 384-well microplates. Each well contained 5 μL aliquot of each concentration of test compound, 10 μL of (2X) membrane preparation and 5 μL of working tracer solution. The cumulative reaction volume was 20 μl with 1% of DMSO ([19]). All procedures were performed at 4 replicates for each concentration. The plate was allowed to incubate at room temperature for at least 1 h prior to fluorescence polarization measurements performed with a microplate reader Infinite M1000 PRO (Tecan).

[2] = test system: intact fasted female Wistar rats; test: Hypoglycemic action in intact rats after single oral administration; format: in vivo, rat; settings: 0.1–1 mg/kg oral
Description: Blood glucose levels were evaluated in the peripheral blood (from the tail vein) of intact fasted (6 h) female Wistar rats using a glucometer Contour TS (Bayer, Germany) at 60, 120, and 180 min after single oral administration of each ZB-09 analogs (in doses of 0.1, 1, and 10 mg/kg). The female animals were used because of their advantages in toxicological studies shown by several authors ([23]).

[3] = test system: rats with streptozotocin-nicotinamide (STZ-NA) induced T2D; test: Hypoglycemic activity after single oral administration in T2D rat model; format: in vivo; settings: single oral 1 mg/kg, fasted STZ-NA T2D rats, over a 3 h period
Description: Procedures were performed in 40 female Wistar rats weighing 250–280 g. Streptozotocin-nicotinamide-induced rat model of T2D was used ([24], [25]). Briefly, streptozotocin (Sigma, St. Louis, MO, USA) was administered i.p. to overnight fasted rats (65 mg/kg in 100 mmol/l citrate buffer, Ph 4.5). Nicotinamide (Sigma, St. Louis, MO, USA) (230 mg/kg) dissolved in saline was administered i.p. 15 min before streptozotocin. STZ-NA T2D had been confirmed 72 h after in rats with blood glucose levels in a range 9–14 mmol/l measured in fasting (6 h) conditions. […] […] For OGTT rats received an oral dose of […] glucose dissolved in saline; blood glucose levels were monitored every 30 min for 2 h after glucose administration. Sitagliptin dose was chosen in accordance with published data ([26]).

[4] = test system: rats with streptozotocin-nicotinamide (STZ-NA) induced T2D; test: Hypoglycemic activity after continuous (28 days) oral administration in T2D rat model, OGTT; format: in vivo
Description: Procedures were performed in 40 female Wistar rats weighing 250–280 g. Streptozotocin-nicotinamide-induced rat model of T2D was used ([24], [25]). Briefly, streptozotocin (Sigma, St. Louis, MO, USA) was administered i.p. to overnight fasted rats (65 mg/kg in 100 mmol/l citrate buffer, Ph 4.5). Nicotinamide (Sigma, St. Louis, MO, USA) (230 mg/kg) dissolved in saline was administered i.p. 15 min before streptozotocin. STZ-NA T2D had been confirmed 72 h after in rats with blood glucose levels in a range 9–14 mmol/l measured in fasting (6 h) conditions. […] Following the continuous oral administration of sitagliptin (10 mg/kg), ZB-16 (1 mg/kg) or saline during 28 days STZ-NA T2D confirmation the fasting blood glucose levels were measured, and oral glucose tolerance test (OGTT) was performed. For OGTT rats received an oral dose of […] glucose dissolved in saline; blood glucose levels were monitored every 30 min for 2 h after glucose administration. Sitagliptin dose was chosen in accordance with published data ([26]).

O=S1(=O)COc2cc(-c3ccc(OCC4CCN(c5ncc(Cl)cn5)CC4)c(F)c3)ccc21 [ZB-16]
EC50 (human GPR119 (hGPR119)): 7.25 nM | EC50 (human GPR119 (hGPR119); values of the text): 7.3 to 9.7 nM | type of agonism on GPR119 (human GPR119 (hGPR119); response normalized to control substance (Arena)): complete agonist | ER ([1]; Rat microsomal fraction): 0.58 | CLh ([1]; Rat microsomal fraction, in mL/min/kg (unit assumed)): 32.09 | microsomal CLint at 0.5 μM ([1]; liver microsomal fraction): 42.8 µL/min/mg | half-life at 0.5 μM ([1]; liver microsomal fraction, 0.5 μM, NADPH, read-out: t1/2, min): 1.08 h | Average polarization mP (n = 4) (hERG potassium channels; 1 μM): 264 mP | Unbound hERG % (hERG potassium channels; 1 μM): 89% | Average polarization mP (n = 4) (hERG potassium channels; 10 μM): 244 mP | Unbound hERG % (hERG potassium channels; 10 μM): 77% | blood glucose levels after single oral administration [2]: significant decrease | decrease of blood glucose levels [3]: 24% | reduction in the area under the glucose concentration-time curve compared to the control group ([4]; OGTT on day 28, 1 mg/kg/day oral): 22% | blood glucose levels lower than in saline group ([4]; OGTT on day 28, 1 mg/kg/day oral, 30 min after oral glucose (3 mg/kg)): 27% | mean blood glucose level ([4]; OGTT on day 28, 1 mg/kg/day oral, two hours after glucose administration): 9.1 ± 0.37 mmol/L | blood glucose levels ([4]; daily oral ZB-16 1 mg/kg or sitagliptin 10 mg/kg for 28 days, STZ-NA T2D): reduction
